Patent US11578079B2, “SUMO inhibitor compounds and uses thereof” (CITY OF HOPE, priority 2018, dated 2023)

Biological target: T1, SUMO (Homo sapiens, UniProt Q9UBT2)
T1 sequence (Q9UBT2 1-640): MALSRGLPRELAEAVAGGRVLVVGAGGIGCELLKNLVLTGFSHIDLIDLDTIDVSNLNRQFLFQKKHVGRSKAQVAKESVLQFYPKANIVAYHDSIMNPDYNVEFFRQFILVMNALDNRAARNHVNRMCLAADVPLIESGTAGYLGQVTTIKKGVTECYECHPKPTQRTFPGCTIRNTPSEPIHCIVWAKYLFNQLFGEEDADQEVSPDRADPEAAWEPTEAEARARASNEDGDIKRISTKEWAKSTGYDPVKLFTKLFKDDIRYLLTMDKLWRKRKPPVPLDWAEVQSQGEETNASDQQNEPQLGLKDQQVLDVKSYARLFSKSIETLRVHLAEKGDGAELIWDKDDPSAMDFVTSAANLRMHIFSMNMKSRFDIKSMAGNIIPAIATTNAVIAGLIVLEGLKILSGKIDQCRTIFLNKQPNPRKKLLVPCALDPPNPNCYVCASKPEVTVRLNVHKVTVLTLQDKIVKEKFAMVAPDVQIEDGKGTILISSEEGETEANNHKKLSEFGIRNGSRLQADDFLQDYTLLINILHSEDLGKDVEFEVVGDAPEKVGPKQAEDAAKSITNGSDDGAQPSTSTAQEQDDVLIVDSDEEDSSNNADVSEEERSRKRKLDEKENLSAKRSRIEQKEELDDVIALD
T1 sequence (Q9UBE0 1-346 partner): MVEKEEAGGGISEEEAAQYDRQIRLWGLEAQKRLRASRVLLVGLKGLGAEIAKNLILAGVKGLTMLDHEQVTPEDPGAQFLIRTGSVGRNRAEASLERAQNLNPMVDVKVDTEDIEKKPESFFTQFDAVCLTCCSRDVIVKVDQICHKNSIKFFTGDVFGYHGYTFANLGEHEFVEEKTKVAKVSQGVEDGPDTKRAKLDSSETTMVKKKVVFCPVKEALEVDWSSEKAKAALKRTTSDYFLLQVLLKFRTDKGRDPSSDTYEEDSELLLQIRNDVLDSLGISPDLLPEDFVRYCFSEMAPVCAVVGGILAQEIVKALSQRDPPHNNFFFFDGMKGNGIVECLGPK
Assay: SUMO activity (Table I, biological activities)
Type: biochemical
Set-up: key: + (less active); ++ (active); +++ (most active)

Row | Compound | SUMO
1 | CCOc1ccc(CC(Nc2ccccc2)C23C=CC(O2)C(C(=O)OC)=C3C(=O)OC)cc1 (stereo not drawn) [Compound 644] | ++
2 | COC(=O)C1=C(C(=O)Nc2ccncc2)C2C=CC1(C(Cc1ccccc1)Nc1cc(F)cc(F)c1)O2 (stereo not drawn) [Compound 206] | +
3 | COC(=O)C1=C(C(=O)N(C)C)C2C=CC1(C(Cc1ccccc1)Nc1ccccc1)O2 (stereo not drawn) [Compound 154] | +
4 | COC(=O)C1=C(C(=O)OC)C2(C(Cc3ccc(C4CCOCC4)cc3)Nc3ccccc3)C=CC1O2 (stereo not drawn) [Compound 681] | ++
5 | COC(=O)C1=C(C(=O)NC2CCN(C)CC2)C2(C)C=CC1(C(Cc1ccccc1)Nc1ccccc1)O2 (stereo not drawn) [Compound 268] | +
6 | COC(=O)C1=C(C(=O)OC)C2(C(Cc3ccc(F)cc3F)Nc3ccccc3)C=CC1O2 (stereo not drawn) [Compound 639] | ++
7 | COC(=O)C1=C(C(=O)OC)C2(C(Cc3ccccc3)Nc3ccccc3F)C=CC1O2 (stereo not drawn) [Compound 270] | ++
8 | COC(=O)C1=C(C(=O)OC)C2(C(Cc3ccccc3Cl)Nc3ccccc3)CCC1O2 (stereo not drawn) [Compound 689] | +
9 | COC(=O)C1=C(C(=O)OC)C2(C(Nc3ccccc3)c3ccc4ccc(OC)cc4c3)C=CC1O2 (stereo not drawn) [Compound 654] | ++
10 | COC(=O)C1=C(C(=O)OC)C2(C(Cc3ccccc3)Nc3ccc(F)cc3)C=CC1O2 (stereo not drawn) [Compound 273] | ++
11 | COC(=O)C1=C(C(=O)Nc2ccc(C)c(F)c2)C2CCC1(C(Cc1ccccc1Cl)Nc1ccccc1)O2 (stereo not drawn) [Compound 692] | +
12 | COC(=O)C1=C(C(=O)OC)C2(C(Cc3ccccc3)Nc3ccccc3)C=CC1(C)O2 (stereo not drawn) [Compound 259] | ++
13 | COC(=O)C1=C(C(=O)OC)C2(C(Cc3ccccc3Cl)Oc3ccccc3)C=CC1O2 (stereo not drawn) [Compound 687] | +
14 | CCOc1cccc(NC(Cc2ccccc2)C23C=CC(O2)C(C(=O)OC)=C3C(=O)OC)c1 (stereo not drawn) [Compound 669] | ++
15 | CCNC(=O)C1=C(C(=O)NCC)C2(C(Cc3ccccc3Cl)Nc3ccccc3)C=CC1O2 (stereo not drawn) [Compound 662] | +
16 | COC(=O)C1=C(C(=O)OC)C2(C(Cc3ccccc3C(F)(F)F)Nc3ccccc3)C=CC1O2 (stereo not drawn) [Compound 658] | ++
17 | COC(=O)C1=C(C(=O)OC)C2(C(Cc3ccccc3)N(C)c3ccccc3)C=CC1O2 (stereo not drawn) [Compound 236] | ++
18 | COC(=O)C1=C(C(=O)OC)C2(C(CCCN3CCOCC3)Nc3ccccc3)C=CC1O2 (stereo not drawn) [Compound 193] | +
19 | COC(=O)C1=C(C(=O)OC)C2(C(Cc3ccc(CC(C)C)cc3)Nc3ccccc3)C=CC1O2 (stereo not drawn) [Compound 656] | ++
20 | COC(=O)C1=C(C(=O)OC)C2(C(Cc3ccc(Nc4ccccc4)cc3)Nc3ccccc3)C=CC1O2 (stereo not drawn) [Compound 683] | +
21 | CCc1ccc(CC(Nc2ccccc2)C23C=CC(O2)C(C(=O)OC)=C3C(=O)OC)cc1 (stereo not drawn) [Compound 655] | ++
22 | COC(=O)C1=C(C(=O)OC)C2(C(Cc3ccc(Cl)cc3Cl)Nc3ccccc3)C=CC1O2 (stereo not drawn) [Compound 641] | +++
23 | Cc1ccc(S(=O)(=O)C2=CC3(C(Cc4ccccc4)Nc4ccccc4)C=CC2(C)O3)cc1 (stereo not drawn) [Compound 532] | +
24 | COC(=O)C1=C(C(=O)OC)C2(C(Cc3cccnc3Cl)Nc3ccccc3)C=CC1O2 (stereo not drawn) [Compound 668] | ++
25 | COC(=O)C1=C(C(=O)OC)C2(C(Cc3ccccc3)Nc3ccccc3)CC(O)C1O2 (stereo not drawn) [Compound 302] | ++
26 | COC(=O)C1=C(C(=O)OC)C2(C(Cc3ccc(OC(C)C)cc3)Nc3ccccc3)C=CC1O2 (stereo not drawn) [Compound 650] | ++
27 | COC(=O)C1=C(C(=O)NCCN2CCOCC2)C2C=CC1(C(Cc1ccccc1)Nc1ccccc1)O2 (stereo not drawn) [Compound 222] | +++
28 | COC(=O)C1=C(C(=O)NNc2ccccc2)C2(C)C=CC1(C(Cc1ccccc1)Nc1ccccc1)O2 (stereo not drawn) [Compound 295] | ++
29 | COC(=O)C1=C(C(=O)OC)C2(C(Cc3ccccc3Cl)Nc3ccccc3)C=CC1O2 (stereo not drawn) [Compound 640] | +++
30 | COC(=O)C1=C(C(=O)OC2CCN(C)CC2)C2C=CC1(C(Cc1ccccc1)Nc1ccccc1)O2 (stereo not drawn) [Compound 286] | ++
